Measurements from patent US20240018146A1, “COMPOSITIONS AND METHODS OF USING THE SAME FOR TREATMENT OF NEURODEGENERATIVE AND MITOCHONDRIAL DISEASE” (MITOKININ, INC., priority 2020, published 2024).
Values after ≈ are worked out from the molar mass of the structure shown. “Also recorded” adds a separate entry of the source. Where two headings read alike, the source gives them in different places.

Legend:
HeLa MKYP cells [1] = test: Human mitophagy assay (HeLa mKeima assay, FACS); type: cell-based; conditions: for EC50: Homo sapiens, HeLa
Summary of the method: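 Mitophagy, read by FACS as the share of cells showing the lysosomal mtKeima emission shift, followed 6 h of 1 uM FCCP/oligomycin stimulation. Before that, HeLa MKYP cells spent 16 h with compound over a concentration range.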

Parkin = Parkin recruitment to mitochondria (HeLa cells expressing YFP-tagged Parkin, longitudinal imaging); type: cell-based, human; conditions: FCCP and Oligomycin, cells with Parkin recruited at 60 minutes, FIG. 29
Method: HeLa cells expressing a YFP-tagged Parkin were treated with […] of FCCP and Oligomycin followed by the specified dose of compound, then analyzed by longitudinal imaging. Percentage of cells with Parkin recruited to mitochondria at 60 minutes is shown.

pS129 α-syn = test: Preformed fibril (PFF) model in primary neuron culture, pS129 α-syn; type: cell-based; conditions: for pathological α-synuclein levels in primary neurons: FIG. 8A-C
Method: 4. Preformed Fibril Model
Mouse and human alpha-synuclein monomers have been sourced commercially, then pre-formed fibrils have been generated as per the detailed protocol provided by the MJFF. For in vitro experiments primary hippocampal neurons isolated from P0 pups were grown for 7 days after which PFFs at 5 ug/ml were introduced Pre-formed fibrils will be introduced via stereotactic injection into the striatum of wt (C57BL/6J, Jax #000664) and transgenic A53T mice (B6;C3-Tg(Prnp-SNCA*A53T)83Vle/J, Jax #004479). Cohorts of drug-treated (oral gavage) and untreated animals will then be allowed to age for up to 6 months, at which point they will be sacrificed and perfused. Brains will be removed and fixed, then sectioned for analysis. We anticipate that untreated A53T animals will show significant spreading of aggregated alpha-synuclein pathology and pS129 staining, as well as some possible neurodegeneration; wt animals are also expected to show pS129 synuclein staining and synuclein aggregation, albeit less than that seen in the A53T background.

[2] = Inspection of crystallization and round cells; type: physicochemical; design: key: 1=yes crystals; 0=no crystals
Method: 5. Inspection of Crystallization and Round Cells
Briefly, the Hela MKYP (Mito-Keima/YFP-Parkin) cells were seeded at 10K cells/well. EP/MTK compounds were added at seeding (cells were still in suspension). The cells were incubated with the EP/MTK compounds for 16 hours, then 1 μM FCCP/oligomycin was added for 6 hours. Prior to harvesting, cells were scored by eye under 20× magnification for the presence or absence of crystalline or aggregated compound, or round cells.

HeLa MKYP cells [3] = test: Cell death measured by DAPI staining, with 1 μM FCCP/oligomycin or no toxin (no FO); type: cell-based; conditions: for E105 death at 8.3 μM (no FO): 8.3 μM compound; for E104 death at 25 μM (no FO) / Max cell death at 25 μM compound, 1 uM FO (%) / Cell death at 25 μM (no FO) (%): 25 μM compound
Summary of the method: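 Cell death was read by DAPI staining after 6–6.5 h compound exposure in HeLa MKYP cells, either with 1 μM FCCP/oligomycin or without toxin. H2O2 served as the cell-death control.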

Kinetic solubility = type: physicochemical
[4] = Mitotoxicity / Mitotox safety margin (therapeutic window); type: cell-based; conditions: for mitotoxicity: FIG. 5-7
cleaved caspase-3 = test: Cleaved caspase-3 levels in primary neuron culture; type: cell-based; conditions: compared with toxins
[5] = mitophagy, 1 μM FCCP/oligomycin, read-out: E100 EC50
[6] = mitophagy, 1 μM FCCP/oligomycin
[7] = 25.0 μM compound, HeLa MKYP culture, 20× magnification
[8] = HeLa mKeima assay, read-out: Mitophagy EC50 (HeLa mKeima assay)
[9] = read-out: Mitophagy induction EC50
[10] = average ± spread, read-out: E100 EC50 (μM) (average)

## FC(F)(F)c1cc2c(NC3CCCc4ccccc43)ncnc2[nH]1 (single isomer, unassigned) [EP-0035985]
HeLa MKYP cells [1]; 1 μM FCCP/oligomycin
  E102 max mitophagy, fold over DMSO: 4.43 fold over DMSO
HeLa MKYP cells [1]; HeLa cells expressing mtKeima, FCCP and Oligomycin, FACS, FIG. 28
  percentage of cells undergoing mitophagy: induce mitophagy in a dose dependent manner; also recorded: dose responsive increase in the percentage of cells undergoing mitophagy
HeLa MKYP cells [1]; [5]
  EC50: 0.33 µM
HeLa MKYP cells [1]; [6]
  E101 lowest effective dose: 0.31 µM
Parkin
  Parkin recruitment to mitochondria: accelerate recruitment of Parkin to mitochondria; also recorded: dose responsive increase in the rate of Parkin recruitment to mitochondria
pS129 α-syn
  pathological α-synuclein levels in primary neurons: reduce pathological α-synuclein levels
[2]; 0.1 μM compound
  visual inspection of crystallization: 0
[2]; 0.3 μM compound
  visual inspection of crystallization: 0
[2]; 0.9 μM compound
  visual inspection of crystallization: 0
[2]; 2.8 μM compound
  visual inspection of crystallization: 0
[2]; 8.3 μM compound
  visual inspection of crystallization: 0
[2]; [7]
  visual inspection of crystallization: 0
HeLa MKYP cells [3]
  E105 death at 8.3 μM (no FO): 2.54
  E104 death at 25 μM (no FO): 3.01
  E103 max death with 1 μM FO: 8.14

## FC(F)(F)c1cc2c(N[C@@H]3c4ccccc4CC[C@H]3N3C[C@H]4COC[C@H]4C3)ncnc2[nH]1 (single isomer, unassigned) [EP-0038583]
HeLa MKYP cells [1]; [8]
  EC50: 0.07 µM
HeLa MKYP cells [1]; [9]
  EC50: 0.06 µM
Kinetic solubility
  solubility kinetic: 1.56 µM (≈ 0.692 µg/mL)
[4]
  Mitotox safety margin (Therapeutic window): + (+ = <10)
  Mito-Safety Index (highest safe dose/EC50): 158.93
  Highest safe dose (μM) (mitotox or cytotox): 9.1 µM
HeLa MKYP cells [3]
  Max cell death at 25 μM compound, 1 uM FO (%): 39.5%
  Cell death at 25 μM (no FO) (%): 6.03%
  Highest safe dose (cytotoxicity; no FO; safe means DAPI+ <20%): 25.0 µM
  Max % death with 1 μM FO: 18.1%

## FC(F)(F)c1cc2c(N[C@H]3c4ccccc4CC[C@@H]3N3C[C@H]4COC[C@H]4C3)ncnc2[nH]1 [EP-0038461]
HeLa MKYP cells [1]; 1 μM FCCP/oligomycin
  E102 max mitophagy, fold over DMSO: 5.44 fold over DMSO
HeLa MKYP cells [1]; [8]
  EC50: 0.11 µM
HeLa MKYP cells [1]; [10]
  EC50: 0.1 ± 0.01 µM
HeLa MKYP cells [1]; [5]
  EC50: 0.11 µM
HeLa MKYP cells [1]; [9]
  EC50: 0.1 µM
HeLa MKYP cells [1]; [6]
  E101 lowest effective dose: 0.93 µM
Kinetic solubility
  solubility kinetic: 1.56 µM (≈ 0.692 µg/mL)
[4]
  Mitotox safety margin (Therapeutic window): +++ (+++ = 20 < x < 30)
  mitotoxicity: low mitotoxicity
  Mito-Safety Index (highest safe dose/EC50): 27.53
  Highest safe dose (μM) (mitotox or cytotox): 2.8 µM
[2]; 0.1 μM compound
  visual inspection of crystallization: 0
[2]; 0.3 μM compound
  visual inspection of crystallization: 0
[2]; 0.9 μM compound
  visual inspection of crystallization: 0
[2]; 2.8 μM compound
  visual inspection of crystallization: 0
[2]; 8.3 μM compound
  visual inspection of crystallization: 0
[2]; [7]
  visual inspection of crystallization: 1
HeLa MKYP cells [3]
  Max cell death at 25 μM compound, 1 uM FO (%): 7.97%
  Cell death at 25 μM (no FO) (%): 4.31%
  Highest safe dose (cytotoxicity; no FO; safe means DAPI+ <20%): 25.0 µM
  E103 max death with 1 μM FO: 7.97
  Max % death with 1 μM FO: 9.7%

## FC(F)(F)c1cc2c(N[C@H]3c4ccccc4CC[C@@H]3N3C[C@@H]4COC[C@H]4C3)ncnc2[nH]1 (single isomer, unassigned) [EP-0040270]
Cleaved caspase-3
  cleaved caspase-3 levels: increase cleaved caspase-3 levels
pS129 α-syn; increasing doses
  pS129 α-syn (250-12) in primary neuron culture: reduces
  pS129 α-syn (monomer) in primary neuron culture: reduces
  pS129 α-syn in primary neuron culture: reduces

## FC(F)(F)c1cc2c(N[C@H]3c4ccccc4CC[C@@H]3N3CC4(CCOCC4)C3)ncnc2[nH]1 (single isomer, unassigned) [EP-0038463]
HeLa MKYP cells [1]; 1 μM FCCP/oligomycin
  E102 max mitophagy, fold over DMSO: 3.95 fold over DMSO
HeLa MKYP cells [1]; [8]
  EC50: 2.59 µM
HeLa MKYP cells [1]; [5]
  EC50: 2.59 µM
HeLa MKYP cells [1]; [9]
  EC50: 2.59 µM
HeLa MKYP cells [1]; [6]
  E101 lowest effective dose: 2.78 µM
Kinetic solubility
  solubility kinetic: 153 µM (≈ 70 µg/mL)
[4]
  Mitotox safety margin (Therapeutic window): + (+ = <10)
  mitotoxicity: low mitotoxicity
  Mito-Safety Index (highest safe dose/EC50): 3.20
  Highest safe dose (μM) (mitotox or cytotox): 8.3 µM
[2]; 0.1 μM compound
  visual inspection of crystallization: 0
[2]; 0.3 μM compound
  visual inspection of crystallization: 0
[2]; 0.9 μM compound
  visual inspection of crystallization: 0
[2]; 2.8 μM compound
  visual inspection of crystallization: 0
[2]; 8.3 μM compound
  visual inspection of crystallization: 0
[2]; [7]
  visual inspection of crystallization: 0
HeLa MKYP cells [3]
  E105 death at 8.3 μM (no FO): 4.21
  Max cell death at 25 μM compound, 1 uM FO (%): 87.805%
  Cell death at 25 μM (no FO) (%): 59.8%
  E104 death at 25 μM (no FO): 59.77
  Highest safe dose (cytotoxicity; no FO; safe means DAPI+ <20%): 8.3 µM
  E103 max death with 1 μM FO: 87.81
  Max % death with 1 μM FO: 87.8%

## FC(F)(F)c1cc2c(N[C@H]3c4ccccc4CC[C@@H]3N3C[C@H]4COC[C@H]4C3)ncnc2[nH]1 (single isomer, unassigned) [EP-0038582]
HeLa MKYP cells [1]; HeLa mKeima assay
  Mitophagy EC50 (HeLa mKeima assay) (μM): Minimal
HeLa MKYP cells [1]; [9]
  EC50: > 25 µM
Kinetic solubility; kinetic from dmso stock
  solubility kinetic: 1.56 µM (≈ 0.692 µg/mL)
[4]
  Highest safe dose (μM) (mitotox or cytotox): 25.0 µM
HeLa MKYP cells [3]
  Max cell death at 25 μM compound, 1 uM FO (%): 5.87%
  Cell death at 25 μM (no FO) (%): 3.77%
  Highest safe dose (cytotoxicity; no FO; safe means DAPI+ <20%): 25.0 µM
  Max % death with 1 μM FO: 4.3%

## FC(F)(F)c1cc2c(N[C@H]3c4ccccc4CC[C@@H]3N3CCOCC3)ncnc2[nH]1 (single isomer, unassigned) [EP-0038098]
HeLa MKYP cells [1]; 1 μM FCCP/oligomycin
  E102 max mitophagy, fold over DMSO: 9.78 fold over DMSO
HeLa MKYP cells [1]; [8]
  EC50: 0.22 µM
HeLa MKYP cells [1]; [5]
  EC50: 0.22 µM
HeLa MKYP cells [1]; text statement referring to Tables 2A and 2B, FIG. 1A-F, read-out: EC50
  EC50: < 0.3 µM
HeLa MKYP cells [1]; [6]
  E101 lowest effective dose: 0.10 µM
Kinetic solubility
  solubility kinetic: 14.1 µM (≈ 5.89 µg/mL)
pS129 α-syn
  pathological α-synuclein levels in primary neurons: reduce pathological α-synuclein levels
[4]
  Mitotox safety margin (Therapeutic window): ++++ (++++ = 30<)
HeLa MKYP cells [3]
  E105 death at 8.3 μM (no FO): 2.59
  Max cell death at 25 μM compound, 1 uM FO (%): 24%
  Cell death at 25 μM (no FO) (%): 5.29%
  E104 death at 25 μM (no FO): 5.29
  E103 max death with 1 μM FO: 24.02
HeLa MKYP cells [3]; text statement referring to Tables 2A and 2B, FIG. 1A-F
  toxicity: less than 10%

## Fc1ccc2c(c1)CC[C@H](N1CCOCC1)[C@H]2Nc1ncnc2[nH]c(C(F)(F)F)cc12 (single isomer, unassigned) [EP-0038503]
HeLa MKYP cells [1]; 1 μM FCCP/oligomycin
  E102 max mitophagy, fold over DMSO: 5.11 fold over DMSO
HeLa MKYP cells [1]; [8]
  EC50: 0.38 µM
HeLa MKYP cells [1]; [10]
  EC50: 0.48 ± 0.1 µM
HeLa MKYP cells [1]; [5]
  EC50: 0.58 µM
HeLa MKYP cells [1]; [9]
  EC50: 0.48 µM
HeLa MKYP cells [1]; [6]
  E101 lowest effective dose: 8.33 µM
Kinetic solubility
  solubility kinetic: 1.56 µM (≈ 0.679 µg/mL)
[4]
  Mitotox safety margin (Therapeutic window): ++ (++ = 10 < x < 20)
  mitotoxicity: low mitotoxicity
  Mito-Safety Index (highest safe dose/EC50): 17.40
  Highest safe dose (μM) (mitotox or cytotox): 8.3 µM
HeLa MKYP cells [3]
  Max cell death at 25 μM compound, 1 uM FO (%): 8.15%
  Cell death at 25 μM (no FO) (%): 2.53%
  Highest safe dose (cytotoxicity; no FO; safe means DAPI+ <20%): 25.0 µM
  E103 max death with 1 μM FO: 4.37
  Max % death with 1 μM FO: 6.3%
